Reference: patent publication US12103916B2, “Antifungal compounds” (University of Kentucky Research Foundation, priority 2016, dated 2024)
Converted amounts (≈) assume the structure as drawn. Where two headings read alike, the source gives them in different places. Values belong to the compound of their own block, whether it stands above or below them.

Columns and labels:
[1] = test system: Candida glabrata ATCC 2001; test: MIC determination, strain H; assay type: cell-based; conditions: strain H, AmB; for MIC: Nakaseomyces glabratus, ATCC2001
Protocol: (§1) The antifungal activity of our new azole compounds 1-9 and 24-41 was first evaluated against a panel of seven Candida albicans strains (A-G), three non-albicans Candida strains […], and three Aspergillus strains (K-M) in a concentration range of 0.03-31.2 μg/mL (Table 1). […] For all of our azole derivatives we report their MIC-0 values against C. albicans ATCC 10231 (strain A) and all Aspergillus strains (K-M), which correspond to complete growth inhibition of these fungi. […] The commercially available antifungals AmB, FLC, ITC, POS, and VOR were used as reference drugs for comparison. The MIC values presented for these five control drugs were either tested herein or correspond to our previously published data^5, 16 as indicated in Table 1.
(§2) Antifungal activity in the absence or presence of serum. The antifungal activity of the newly prepared alkylated piperazine/morpholine-azole hybrids 16-28, of intermediate 14 that we used to verify that only final compounds exert antifungal activity, as well as that of alkylated piperazine/morpholine derivatives 1-10 were first evaluated against a panel of seven C. albicans (ATCC 10231 (A), ATCC 64124(R) (B), ATCC MYA-2876(S) (C), ATCC 90819(R) (D), ATCC MYA-2310(S) (E), ATCC MYA-1237(R) (F), and ATCC MYA-1003(R) (G)), three non-albicans Candida (C. glabrata ATCC 2001 (H), C. krusei ATCC 6258 (I), and C. parapsilosis ATCC 22019 (J)), and three Aspergillus (A. flavus ATCC MYA-3631 (K), A. nidulans ATCC 38163 (L), and A. terreus ATCC MYA-3633 (M)) strains using a concentration range of 0.03-31.3 μg/mL (Table 2).
(§3) Commercially available antifungal agents such as AmB, CAS, FLC, and VOR were used as positive controls for comparison. […] It is important to note that all comparisons to follow will be done by using the MIC values reported in μg/mL as the data were collected that way. However, we also present in parentheses in Table 2 the corresponding values in micromolar.
(§4) We used the commercially available antifungal agents such as AmB, caspofungin (CAS), FLC, and VOR as positive controls for comparison. For derivatives 5-16 as well as the reference drugs AmB and CAS, we reported MIC-0 values, which correspond to no visible growth. […] In this manuscript, we performed all activity comparisons by using the MIC values reported in μg/mL (Note: the corresponding MIC values are also provided in μM into parentheses in Tables 1, 2, S1, and S2).

[2] = test system: C. albicans ATCC MYA-1003(R); test: MIC determination, strain G; assay type: cell-based, Candida albicans; conditions: strain G, AmB; for MIC: Candida albicans
Source text: (§5) For all of our azole derivatives we report their MIC-0 values against C. albicans ATCC 10231 (strain A) and all Aspergillus strains (K-M), which correspond to complete growth inhibition of these fungi. […] The MIC values presented for these five control drugs were either tested herein or correspond to our previously published data^5, 16 as indicated in Table 1.
(§6) Antifungal activity in the absence or presence of serum.
(§7) It is important to note that all comparisons to follow will be done by using the MIC values reported in μg/mL as the data were collected that way. However, we also present in parentheses in Table 2 the corresponding values in micromolar.
(§8) In this manuscript, we performed all activity comparisons by using the MIC values reported in μg/mL (Note: the corresponding MIC values are also provided in μM into parentheses in Tables 1, 2, S1, and S2).

[3] = test system: C. albicans ATCC MYA-2876(S); test: MIC determination, strain C; assay type: cell-based, Candida albicans; conditions: strain C, AmB; for MIC: Candida albicans
Protocol: as §1, §2, §3, §4

[4] = test system: C. albicans ATCC 90819(R); test: MIC determination, strain D; assay type: cell-based, Candida albicans; conditions: strain D, AmB; for MIC: Candida albicans, ATCC90819
Protocol: as §1, §2, §3, §4

[5] = test system: C. albicans ATCC MYA-1237(R); test: MIC determination, strain F; assay type: cell-based, Candida albicans; conditions: strain F, AmB; for MIC: Candida albicans
Source text: as §5, §6, §7, §8

[6] = test system: BEAS-2B cell line; test: Cytotoxicity assay, BEAS-2B; conditions: Ex.1 series, 15.6 μg/mL
Protocol: The positive control consisted of cells treated with Triton X-100® (TX, 12.5% v/v). The negative control consisted of cells treated with DMSO (no drug).
The positive control consisted of cells treated with Triton X-100® (TX, 20% v/v, pink). The negative control consisted of cells treated with DMSO (no drug, green). The experiments were performed in duplicate.
In vitro cytotoxicity assay.

[7] = test system: Candida albicans ATCC 10231; test: MIC determination, strain A; assay type: cell-based; conditions: for MIC: Candida albicans, ATCC10231
Source text: as §5, §6, §7, §8

[8] = test system: Aspergillus terreus ATCC MYA-3633; test: MIC determination, strain M; assay type: cell-based; conditions: for MIC: Aspergillus terreus
Source text: as §5, §6, §7, §8

[9] = test system: C. albicans ATCC 64124; test: MIC determination, strain B; assay type: cell-based, Candida albicans; conditions: strain B, AmB; for MIC: Candida albicans, ATCC64124
Protocol: as §1, §2, §3, §4

[10] = test system: Candida krusei ATCC 6258; test: MIC determination, strain I; assay type: cell-based; conditions: strain I, AmB; for MIC: Pichia kudriavzevii, ATCC6258
Protocol: as §1, §2, §3, §4

[11] = test system: C. albicans ATCC MYA-2310(S); test: MIC determination, strain E; assay type: cell-based, Candida albicans; conditions: strain E, AmB; for MIC: Candida albicans
Protocol: as §1, §2, §3, §4

[12] = test system: Aspergillus flavus ATCC MYA-3631; test: MIC determination, strain K; assay type: cell-based; conditions: Table 2, all compounds and controls
Source text: as §5, §6, §7, §8

[13] = test system: Candida parapsilosis ATCC 22019; test: MIC determination, strain J; assay type: cell-based; conditions: Lodderomyces parapsilosis, ATCC22019, Table 2, strain J, Ex.2 compounds, AmB, CAS
Protocol: as §1, §2, §3, §4

[14] = test system: Aspergillus nidulans ATCC 38163; test: MIC determination, strain L; assay type: cell-based; conditions: ATCC38163, Table 2, strain L, all compounds and controls
Source text: as §5, §6, §7, §8

[15] = Table 2, all compounds and controls
[16] = Table 2, Ex.2 compounds, CAS, read-out: MIC (MIC-0)
[17] = Table 2, Ex.2 compounds, CAS, read-out: MIC (MIC-0), in parentheses
[18] = read-out: MIC (MIC-0), in parentheses

SMILES: C[C@@H]1[C@H](O)[C@@H](C)/C=C/C=C/C=C/C=C/C=C/C=C/C=C/[C@H](O[C@@H]2O[C@H](C)[C@@H](O)[C@H](N)[C@@H]2O)C[C@@H]2O[C@](O)(C[C@@H](O)C[C@@H](O)[C@H](O)CC[C@@H](O)C[C@@H](O)CC(=O)O[C@H]1C)C[C@H](O)[C@H]2C(=O)O [AmB, amphotericin B]
MIC (MIC-0) ([1]; Table 1): 1.95 µg/mL (≈ 2.11 µM)
MIC (MIC-0) ([1]; Table 2, Ex.2 compounds, CAS): 1.95 µg/mL (≈ 2.11 µM)
MIC (MIC-0), in parentheses ([1]; Table 2, Ex.2 compounds, CAS): (2.1) micromolar
MIC (MIC-0) ([2]; Table 1): 3.9 µg/mL (≈ 4.22 µM)
MIC (MIC-0) ([2]; Table 2, Ex.2 compounds, CAS): 3.9 µg/mL (≈ 4.22 µM)
MIC (MIC-0), in parentheses ([2]; Table 2, Ex.2 compounds, CAS): (4.2) micromolar
MIC (MIC-0) ([3]; Table 1): 1.95 µg/mL (≈ 2.11 µM)
MIC (MIC-0) ([3]; Table 2, Ex.2 compounds, CAS): 1.95 µg/mL (≈ 2.11 µM)
MIC (MIC-0), in parentheses ([3]; Table 2, Ex.2 compounds, CAS): (2.1) micromolar
MIC (MIC-0) ([4]; Table 1): 0.975 µg/mL (≈ 1.06 µM)
MIC (MIC-0) ([4]; Table 2, Ex.2 compounds, CAS): 0.975 µg/mL (≈ 1.06 µM)
MIC (MIC-0), in parentheses ([4]; Table 2, Ex.2 compounds, CAS): (1.1) micromolar
MIC (MIC-0) ([5]; Table 1): 3.9 µg/mL (≈ 4.22 µM)
MIC (MIC-0) ([5]; Table 2, Ex.2 compounds, CAS): 3.9 µg/mL (≈ 4.22 µM)
MIC (MIC-0), in parentheses ([5]; Table 2, Ex.2 compounds, CAS): (4.2) micromolar
cell survival [6]: 30%
MIC (MIC-0) ([7]; Table 1, strain A, Ex.1 compounds 1-9, 24-41 and AmB, complete growth inhibition): 3.9 µg/mL (≈ 4.22 µM)
MIC (MIC-0) ([7]; Table 2, strain A, Ex.2 compounds 1-10, 14, 16-28, AmB, CAS, no visible growth): 3.9 µg/mL (≈ 4.22 µM)
MIC (MIC-0), in parentheses ([7]; Table 2, strain A, Ex.2 compounds, AmB, CAS): (4.2) micromolar
MIC, Candida albicans ATCC 10231 (A) (+10% FBS) ([7]; Table 3, Ex.2 compounds, +10% FBS): 7.8 µg/mL (≈ 8.44 µM)
MIC, Candida albicans ATCC 10231 (A) (no FBS) ([7]; Table 3, Ex.2 compounds, no FBS): 3.9 µg/mL (≈ 4.22 µM)
MIC (MIC-0) ([8]; Table 1, Ex.1 compounds and AmB, complete growth inhibition): 3.9 µg/mL (≈ 4.22 µM)
MIC (MIC-0) [8, 15]: 3.9 µg/mL (≈ 4.22 µM)
MIC (MIC-0), in parentheses [8, 15]: (4.2) micromolar
MIC (MIC-0) ([9]; Table 1): 3.9 µg/mL (≈ 4.22 µM)
MIC (MIC-0) ([9]; Table 2, Ex.2 compounds, CAS): 3.9 µg/mL (≈ 4.22 µM)
MIC (MIC-0), in parentheses ([9]; Table 2, Ex.2 compounds, CAS): (4.2) micromolar
MIC (MIC-0) ([10]; Table 1): 3.9 µg/mL (≈ 4.22 µM)
MIC (MIC-0) ([10]; Table 2, Ex.2 compounds, CAS): 3.9 µg/mL (≈ 4.22 µM)
MIC (MIC-0), in parentheses ([10]; Table 2, Ex.2 compounds, CAS): (4.2) micromolar
MIC (MIC-0) ([11]; Table 1): 1.95 µg/mL (≈ 2.11 µM)
MIC (MIC-0) ([11]; Table 2, Ex.2 compounds, CAS): 1.95 µg/mL (≈ 2.11 µM)
MIC (MIC-0), in parentheses ([11]; Table 2, Ex.2 compounds, CAS): (2.1) micromolar

MIC [1, 16]: 0.06 µg/mL
MIC [1, 17]: 0.05 µM
MIC ([12]; read-out: MIC (MIC-0)): > 31.3 µg/mL
MIC [12, 18]: > 25.8 µM
MIC [2, 16]: 0.48 µg/mL
MIC [2, 17]: 0.4 µM
MIC [3, 16]: 0.06 µg/mL
MIC [3, 17]: 0.05 µM
MIC [4, 16]: 0.12 µg/mL
MIC [4, 17]: 0.1 µM
MIC [5, 16]: 0.24 µg/mL
MIC [5, 17]: 0.2 µM
MIC ([13]; read-out: MIC (MIC-0)): 1.95 µg/mL
MIC [13, 18]: 1.6 µM
MIC ([14]; read-out: MIC (MIC-0)): > 31.3 µg/mL
MIC [14, 18]: > 25.8 µM
MIC ([7]; Table 2, strain A, Ex.2 compounds 1-10, 14, 16-28, AmB, CAS, no visible growth, read-out: MIC (MIC-0)): 0.975 µg/mL
MIC ([7]; Table 2, strain A, Ex.2 compounds, AmB, CAS, read-out: MIC (MIC-0), in parentheses): 0.8 µM
MIC ([8]; Table 2, all compounds and controls, read-out: MIC (MIC-0)): > 31.3 µg/mL
MIC ([8]; Table 2, all compounds and controls, read-out: MIC (MIC-0), in parentheses): > 25.8 µM
MIC [9, 16]: 0.24 µg/mL
MIC [9, 17]: 0.2 µM
MIC [10, 16]: 0.48 µg/mL
MIC [10, 17]: 0.4 µM
MIC [11, 16]: 0.12 µg/mL
MIC [11, 17]: 0.1 µM
SMILES: CC[C@H](C)C[C@H](C)CCCCCCCCC(=O)N[C@H]1C[C@@H](O)[C@@H](NCCN)NC(=O)[C@@H]2[C@@H](O)CCN2C(=O)[C@H]([C@H](O)CCN)NC(=O)[C@H]([C@H](O)[C@@H](O)c2ccc(O)cc2)NC(=O)[C@@H]2C[C@@H](O)CN2C(=O)[C@H]([C@@H](C)O)NC1=O [CAS, caspofungin]
